Where a SMILES comes first, the peptide text is derived from it.
Assays:
[1] = biological target: Hepatocyte growth factor (Homo sapiens) (UniProt P14210); assay: Activation of HGF in human A549 cells assessed as increase in Met phosphorylation; format: cell-based
[2] = biological target: BDNF/NT-3 growth factors receptor (Homo sapiens) (UniProt Q16620); assay: Agonist activity at human TrkB receptor in HEK293 cells assessed as increase in TrkB phosphorylation at 0.001 to 1 uM relative to control; format: cell-based; settings: filed as agonist, dose 0.001-1 µM
[3] = biological target: BDNF/NT-3 growth factors receptor (Homo sapiens) (UniProt Q16620); assay: Agonist activity at human TrkB receptor in HEK293 cells assessed as increase in ERK phosphorylation at 0.001 to 1 uM relative to control; format: cell-based; settings: filed as agonist, dose 0.001-1 µM
[4] = Neuroprotective activity against chick primary sensory neuron assessed as inhibition of BDNF-mediated neuronal survival; format: functional, Gallus gallus
Rattus norvegicus [5] = assay: Neuroprotective activity against medial cerebral artery occlusion induced cerebral ischemia rat model assessed decrease in infarct volume at 1 mg/kg, ip qd administered 4 hrs post reperfusion and measured after 6 days by TTC staining based assay; format: functional; design: scale not given: the % may be the effect or the level left; settings: time 144 hrs
Rattus norvegicus [6] = assay: Neuroprotective activity against medial cerebral artery occlusion induced cerebral ischemia rat model assessed decrease in infarct volume at 0.1 mg/kg, ip qd administered 4 hrs post reperfusion and measured after 6 days by TTC staining based assay; format: functional; design: scale not given: the % may be the effect or the level left; settings: time 144 hrs
[7] = Induction of TrkA phosphorylation in rat PC12 cells at 3 uM measured after 10 to 30 mins by Western blotting analysis relative to control; format: functional, PC-12; settings: time 10-30 min

Sequence of BDNF/NT-3 growth factors receptor (Homo sapiens) (Q16620 32-822 limits assumed): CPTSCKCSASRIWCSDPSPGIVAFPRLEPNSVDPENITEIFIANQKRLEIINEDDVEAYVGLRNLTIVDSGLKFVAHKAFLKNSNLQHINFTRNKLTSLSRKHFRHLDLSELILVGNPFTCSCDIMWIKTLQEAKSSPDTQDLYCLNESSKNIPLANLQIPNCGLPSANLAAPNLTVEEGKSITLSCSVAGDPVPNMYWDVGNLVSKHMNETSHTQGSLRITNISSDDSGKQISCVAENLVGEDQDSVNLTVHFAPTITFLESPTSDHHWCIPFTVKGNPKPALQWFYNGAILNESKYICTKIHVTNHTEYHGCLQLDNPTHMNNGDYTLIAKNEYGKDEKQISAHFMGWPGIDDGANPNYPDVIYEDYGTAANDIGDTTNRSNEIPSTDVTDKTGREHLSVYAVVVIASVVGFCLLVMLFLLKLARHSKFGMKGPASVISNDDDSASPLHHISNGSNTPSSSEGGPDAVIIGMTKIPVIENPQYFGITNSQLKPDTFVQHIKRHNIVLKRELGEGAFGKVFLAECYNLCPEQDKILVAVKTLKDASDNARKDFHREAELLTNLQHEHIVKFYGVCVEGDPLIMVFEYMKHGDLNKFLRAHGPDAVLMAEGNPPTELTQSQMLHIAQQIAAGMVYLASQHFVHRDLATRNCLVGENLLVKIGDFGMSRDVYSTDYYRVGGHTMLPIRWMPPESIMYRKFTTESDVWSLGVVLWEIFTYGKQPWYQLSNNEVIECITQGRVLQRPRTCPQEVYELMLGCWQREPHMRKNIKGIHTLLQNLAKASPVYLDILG
Sequence of Hepatocyte growth factor (Homo sapiens) (P14210 32-494 limits assumed): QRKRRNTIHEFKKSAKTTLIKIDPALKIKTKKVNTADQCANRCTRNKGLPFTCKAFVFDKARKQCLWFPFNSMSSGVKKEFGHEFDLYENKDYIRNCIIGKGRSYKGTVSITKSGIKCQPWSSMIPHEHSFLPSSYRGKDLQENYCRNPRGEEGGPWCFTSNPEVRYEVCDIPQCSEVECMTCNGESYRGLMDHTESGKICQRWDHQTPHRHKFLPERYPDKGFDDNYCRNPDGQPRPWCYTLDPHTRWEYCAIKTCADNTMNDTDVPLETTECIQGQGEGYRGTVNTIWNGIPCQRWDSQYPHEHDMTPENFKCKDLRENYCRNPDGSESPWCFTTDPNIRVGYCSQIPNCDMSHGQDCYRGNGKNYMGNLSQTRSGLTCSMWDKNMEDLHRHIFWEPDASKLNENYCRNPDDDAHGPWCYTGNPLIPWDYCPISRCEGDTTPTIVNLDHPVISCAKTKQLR
Sequence of Hepatocyte growth factor (Homo sapiens) (P14210 495-728 limits assumed): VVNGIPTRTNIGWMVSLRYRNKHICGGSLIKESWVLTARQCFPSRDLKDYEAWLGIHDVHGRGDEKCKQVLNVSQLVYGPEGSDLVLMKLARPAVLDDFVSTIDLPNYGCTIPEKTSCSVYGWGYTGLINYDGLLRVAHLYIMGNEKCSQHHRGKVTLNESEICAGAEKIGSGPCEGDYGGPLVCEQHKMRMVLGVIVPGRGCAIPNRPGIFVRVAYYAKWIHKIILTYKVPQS

For H-VVNGIPTR-OH, which Activity [1] is on record?
Its Activity is 25%.

With `CSCC[C@H](NC(=O)[C@H](CCCNC(=N)N)NC(=O)[C@@H]1CCCN1C(=O)[C@H](CC(C)C)NC(=O)[C@H](CO)NC(=O)[C@H](CC(N)=O)NC(=O)CC(N)CC(=O)[C@H](CC(N)=O)NC(=O)[C@H](CO)NC(=O)[C@H](CC(C)C)NC(=O)[C@@H]1CCCN1C(=O)[C@H](CCCNC(=N)N)NC(=O)[C@H](CCSC)NC(=O)[C@@H]1CSSC[C@H](C(N)=O)C(=O)N[C@@H](CC(C)C)C(=O)N[C@@H](CCCNC(=N)N)C(=O)N[C@@H](Cc2c[nH]c3ccccc23)C(=O)N[C@@H](CCCNC(=N)N)C(=O)N[C@@H](CCCNC(=N)N)C(=O)N[C@@H](C(C)C)C(=O)N[C@@H](CCCNC(=N)N)C(=O)N1)C(=O)N[C@H]1CSSC[C@@H](C(=O)N[C@@H](Cc2ccccc2)C(=O)O)NC(=O)[C@H](CC(C)C)NC(=O)[C@H](CCCNC(=N)N)NC(=O)[C@H](Cc2c[nH]c3ccccc23)NC(=O)[C@H](CCCNC(=N)N)NC(=O)[C@H](CCCNC(=N)N)NC(=O)[C@H](C(C)C)NC(=O)[C@H](CCCNC(=N)N)NC1=O` (some centres not stated) (HELM PEPTIDE1{L.R.W.R.R.V.R.C.M.R.P.L.S.[NC(=O)C[C@H](N[*:1])C(=O)CC(N)CC(=O)[*:2]].N.S.L.P.R.M.C.R.V.R.R.W.R.L.C.F}|CHEM1{[NC(=O)[C@@H](CS[*:2])C(=O)[*:1]]}$PEPTIDE1,PEPTIDE1,21:R3-29:R3|PEPTIDE1,CHEM1,1:R1-1:R1|PEPTIDE1,CHEM1,8:R3-1:R2$$$V2.0) as the compound, how does the Activity [2] read?
Its Activity is 50%.

And the Activity [3]?
Its Activity is 50%.

With `CC(C)C[C@@H]1NC(=O)[C@H](CCC(N)=O)NC(=O)CNC(=O)[C@H](CCCCN)NC(=O)[C@H](CO)NC(=O)[C@H](C(C)C)NC(=O)[C@@H]2CCCN2C(=O)[C@H](C(C)C)NC(=O)[C@@H](N)CSSC[C@@H](C(=O)O)NC1=O` (HELM PEPTIDE1{C.V.P.V.S.K.G.Q.L.C}$PEPTIDE1,PEPTIDE1,1:R3-10:R3$$$V2.0) as the compound, how does the “inhibition (INH)” value [4] read?
Its value is 50%.

With `NCCCC[C@H](NC(=O)[C@H](Cc1c[nH]cn1)NCCCCCCNC(=O)[C@H](Cc1c[nH]cn1)NC(=O)[C@H](CCCCN)NC(=O)CCCO)C(=O)CCCO` as the compound, how does the Activity (Rattus norvegicus [5]) read?
Its Activity is 25%.

For `NCCCC[C@H](NCCCCCCNC(=O)[C@H](CCCCN)NC(=O)[C@H](CO)NC(=O)CCC(=O)O)C(=O)N[C@@H](CO)C(=O)CCC(=O)O`, which Activity (Rattus norvegicus [6]) is on record?
Its Activity is roughly 66%.

With `CC[C@H](C)[C@@H]1NC(=O)[C@H](CC(=O)O)NC(=O)[C@H]([C@@H](C)O)NC(=O)[C@H](N)CSSC[C@H](C(=O)N[C@H](C(=O)NCC(=O)N[C@@H](C)C(=O)N[C@H]2CSSC[C@@H](C(=O)O)NC(=O)[C@H](CCC(N)=O)NC(=O)[C@H](CCCCN)NC(=O)CNC(=O)[C@H](CC(=O)O)NC2=O)[C@@H](C)O)NC(=O)[C@H](CCCCN)NC(=O)CNC(=O)[C@H](CCCCN)NC1=O` as the compound, how does the Activity [7] read?
Its Activity is roughly 75%.

— ChEMBL document CHEMBL5325458, “Growth factors and their peptide mimetics for treatment of traumatic brain injury” (2023)
